The values below come from patent publication US5190741A, “Agents for diagnosing and treating melanomas, aromatic halogenated derivatives usable as such agents and their preparation” (Institut National de la Sante et de la Recherche Medicale …, priority 1989, dated 1993).

For the experiment, the system named is SW 948 (adenocarcinoma of the colon). Briefly: Scintillation imaging (specificity), nu/nu SSCUP nude mice. To be noted: after injection of A. Type of experiment: in vivo. An excerpt: The mice bearing grafted tumors are anesthetized by the i.p. injection of sodium pentobarbital 1/5 and immobilized under a scintillation camera (Gammatome II, CGR) equipped with a pinhole 3-360 collimator, sensitivity 3.2 10^-4.

SMILES strings stand for the structures.

Take `CCN(CC)CCNC(=O)c1ccc(I)cc1` [Derivative A, N-(2-diethylaminoethyl) 4-iodo benzamide]: the tumor image result is “not obtained any image”.
